Measured values: patent publication US4497742A, “Isomerization of β-lactam compounds” (Takeda Chemical Industries, Ltd., priority 1981, dated 1985)
Counter-ions that a name gives are not always drawn. Like-named read-outs stand apart in the source and are kept apart here.

Columns and labels:
beta-Lactamase [1] = assay: beta-Lactamase-inhibitory activity, producing strain Escherichia coli TN 713; assay type: biochemical
beta-Lactamase [2] = biological target: T1, beta-Lactamase (Staphylococcus aureus, UniProt P00807); assay: beta-Lactamase-inhibitory activity, producing strain Staphylococcus aureus 1840; assay type: biochemical; settings: read-out: beta-Lactamase-inhibitory activity [1D50] (converted)
T1 construct: endogenous in cells; host or cells: Staphylococcus aureus 1840 (producing strain)

beta-Lactamase [3] = assay: beta-Lactamase-inhibitory activity, producing strain Proteus vulgaris GN 4413; assay type: biochemical
beta-Lactamase [4] = biological target: T2, beta-Lactamase (Enterobacter cloacae, UniProt P05364); assay: beta-Lactamase-inhibitory activity, producing strain Enterobacter cloacae TN 1282; assay type: biochemical; settings: read-out: beta-Lactamase-inhibitory activity [1D50] (converted)
T2 construct: endogenous in cells; host or cells: Enterobacter cloacae TN 1282 (producing strain)

[5] = system: Staphylococcus aureus FDA 209P; assay: Antimicrobial spectrum (MIC), Staphylococcus aureus FDA 209P; assay type: cell-based; settings: FDA209P
[6] = system: Escherichia coli NIHJ J2C; assay: Antimicrobial spectrum (MIC), Escherichia coli NIHJ J2C; assay type: cell-based; settings: NIHJJ2C
[7] = system: Salmonella typhimurium IFO 12529; assay: Antimicrobial spectrum (MIC), Salmonella typhimurium IFO 12529; assay type: cell-based; settings: Salmonella enterica
[8] = system: Proteus vulgaris IFO 3988; assay: Antimicrobial spectrum (MIC), Proteus vulgaris IFO 3988; assay type: cell-based; settings: IFO3988
[9] = Proteus vulgaris IFO 3988, read-out: MIC

T1 sequence (P00807 25-281): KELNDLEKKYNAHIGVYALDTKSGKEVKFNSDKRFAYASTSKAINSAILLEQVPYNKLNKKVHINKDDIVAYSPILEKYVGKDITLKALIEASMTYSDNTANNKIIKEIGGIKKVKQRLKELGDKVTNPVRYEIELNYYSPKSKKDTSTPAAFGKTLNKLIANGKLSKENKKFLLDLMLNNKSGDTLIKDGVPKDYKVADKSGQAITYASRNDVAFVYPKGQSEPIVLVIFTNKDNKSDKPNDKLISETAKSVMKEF
T2 sequence (P05364 21-381): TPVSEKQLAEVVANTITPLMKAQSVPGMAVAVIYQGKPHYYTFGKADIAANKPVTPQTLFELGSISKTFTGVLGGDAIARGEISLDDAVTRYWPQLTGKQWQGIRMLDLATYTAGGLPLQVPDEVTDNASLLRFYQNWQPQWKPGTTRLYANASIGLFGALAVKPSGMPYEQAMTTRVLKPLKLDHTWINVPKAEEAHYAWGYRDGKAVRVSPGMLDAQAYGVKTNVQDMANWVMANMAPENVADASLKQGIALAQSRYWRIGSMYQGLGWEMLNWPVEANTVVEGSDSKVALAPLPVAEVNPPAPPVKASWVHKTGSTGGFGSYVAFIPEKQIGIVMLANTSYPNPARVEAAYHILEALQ

| SMILES | beta-Lactamase-inhibitory activity [1D50] (beta-Lactamase [1]) [µg/mL] | IC50 (beta-Lactamase [2]) [nM] | beta-Lactamase-inhibitory activity [1D50] (beta-Lactamase [3]) [µg/mL] | IC50 (beta-Lactamase [4]) [nM] | MIC [5] [µg/mL] | MIC [6] [µg/mL] | MIC [7] [µg/mL] | MIC [8, 9] [µg/mL] | MIC ([8]; Proteus vulgaris) [µg/mL] |
| --- | --- | --- | --- | --- | --- | --- | --- | --- | --- |
| CC(=O)N/C=C\[S@@+]([O-])C1=C(C(=O)[O-])N2C(=O)[C@@H](C(C)(C)O)[C@H]2C1.[Na+] [Ia, sodium [5R, 6R]-3-[(Z)-2-acetamidoethenyl-(R)-sulfinyl]-6-[1-hydroxy-1-methylethyl]-7-oxo-1-azabicyclo(3,2,0)-hept-2-ene-2-carboxylate] | 0.0016 | 151 | 0.00105 | 13.7 | 0.39 |  |  |  |  |
| CC(=O)N/C=C\[S@@+]([O-])C1=C(C(=O)O)N2C(=O)[C@@H](C(C)(C)OS(=O)(=O)O)[C@H]2C1 [Ib, [5R, 6R]-3-[(Z)-2-acetamidoethenyl-(R)-sulfinyl]-6-(1-hydroxysulfonyloxy-1-methylethyl)-7-oxo-1-azabicyclo (3,2,0)-hept-2-ene-2-carboxylic acid disodium salt] | 0.0001175 | 568 | 0.00055 | 36 | 2.5 | 20 | 20 | 40 |  |
| CC(=O)N/C=C\SC1=C(C(=O)[O-])N2C(=O)[C@@H](C(C)(C)O)[C@H]2C1.[Na+] [Ig, sodium [5R, 6R]-3-[(Z)-2-acetamidoethenyl-thio]-6-[1-hydroxy-1-methyl-ethyl]-7-oxo-1-azabicyclo(3,2,0)-hept-2-ene-2-carboxylate] | 0.010 |  | 0.017 | 86.1 | 0.625 | 2.5 | 2.5 |  | 5 |
| CC(=O)N/C=C\SC1=C(C(=O)O)N2C(=O)[C@@H](C(C)(C)OS(=O)(=O)O)[C@H]2C1 [Ih, [5R, 6R]-3-[(Z)-2-acetamidoethenyl-thio]-6-[1-hydroxysulfonyloxy-1-methyl-ethyl]-7-oxo-1-azabicyclo(3,2,0)-hept-2-ene-2-carboxylic acid disodium salt] | 0.017 | 2460 | 0.0038 | 7.87 | 2.5 | 40 | 20 | < 40 |  |
